In patent publication US12257367B2, “Biomaterials for biological tissue repair” (KONAN GAKUEN, priority 2019, dated 2025):

Legend:
[1] = tested on: mouse myoblasts (C2C12 cells); assay: Cytotoxicity test of Ac4ManNAz by WST-1 assay; assay type: cell-based
Protocol: In order to examine the cytotoxicity of the synthesized Ac4ManNAz, mouse myoblasts (C2C12 cells) were used to evaluate toxicity to cells by WST-1 assay. The cells were seeded in a 96-well plate at 1×10^4 cells/well, to which a predetermined amount of Ac4ManNAz dissolved in a DMEM medium (final concentrations of 0, 0.0001, 0.001, 0.01, 0.1 and 1 mM) was added to culture the resultant in a CO2 incubator at 37° C. for one day. To each well, 10 μL of a WST-1 solution (WST-1:1-Methoxy PMS=9:1) was added to allow reaction in the CO2 incubator for 2 hours. Thereafter, absorbance was determined with a microplate reader. Cell viability was calculated from the absorbance.

C2C12 cells = assay: Azide modification of cell surface by sugar metabolism of Ac4ManNAz, detected with carboxyrhodamine 110 DBCO; assay type: cell-based, mouse
Protocol: C2C12 cells were cultured in a DMEM medium containing 100 μM of Ac4ManNAz for 3 days to allow biosynthesis of azide-modified sialic acid at the end of the glycan of the cell membrane protein via cell sugar metabolism reaction of Ac4ManNAz. The cultured cells were washed with PBS twice. To confirm whether an azide group was introduced, carboxyrhodamine 110 DBCO (final concentration 5 μM) was added to the medium and allowed to react in the CO2 incubator for an hour. Subsequently, the cells were washed with PBS twice, to which a live cell imaging buffer (composition of the solution: 140 mM NaCl, 2.5 mM KCl, 1.8 mM CaCl2), 1.0 mM MgCl2 and 20 mM HEPES pH 7.4) was added to observe the cells with a confocal microscope.

[2] = tested on: mouse tissues (lung, cardiac muscle, skeletal muscle, kidney); assay: Azide modification of mouse tissues by Ac4ManNAz administration and hydrogel fabrication using biological tissue; assay type: in vivo; details: intraperitoneal once a day for seven days
Protocol: 6 mg of Ac4ManNAz was dissolved in a mixed solvent of DMSO and PBS solution (58% DMSO) to prepare a Ac4ManNAz solution. 200 μL of the resulting Ac4ManNAz solution was intraperitoneally administered to a mouse (ICR, 5 weeks old, female) once a day for seven consecutive days for azide-modification of the mouse tissues. A week later, lung, cardiac muscle, skeletal muscle and kidney of the mouse were resected. The resected tissues were allowed to react with 100 μM of carboxyrhodamine 110 DBCO for an hour, then added with a PBS solution, vortexed and left to stand still for 10 minutes. This operation was repeated for 3 times. As control, tissues resected from a mouse that was not administered with the Ac4ManNAz solution were allowed to react with carboxyrhodamine 110 DBCO for an hour. […] In order to carry out gelation reaction using mouse tissues, the Ac4ManNAz solution was administered to a mouse in the same manner as described above and lung, brain, muscle tissue, kidney, heart and liver were resected from the mouse.

## CC(=O)OC[C@H]1OC(OC(C)=O)[C@@H](NC(=O)CN=[N+]=[N-])[C@@H](OC(C)=O)[C@@H]1OC(C)=O (some centres unmarked) [Ac4ManNAz]
[1]; WST-1
  amount applicable without having toxicity to cells: 5 to 100 µM
[1]; WST-1, all concentrations (0-1 mM), one day
  cell viability: ≥ 90%
C2C12 cells; C2C12 cells cultured with 100 μM for 3 days, confocal microscope
  carboxyrhodamine 110-derived green fluorescence of cells: strong green fluorescence was observed only on the surface of the cell membrane
C2C12 cells; C2C12 cells, carboxyrhodamine 110 DBCO
  concentration that allows a maximum amount of azide groups to be introduced into the cell surface (fluorescence intensity plateau): 100 µM
[2]
  azide modification of tissues in living body (FITC-derived green fluorescence after bAlg-DBCO-FITC): green fluorescence was observed in all of the tissues
